Assay results published in patent publication US9873883B2, “Glyphosate resistant plants and associated methods” (Dow AgroSciences LLC, priority 2012, dated 2018).
pIC50: −log10 of the molar value.

How the values were obtained:
[1] = molecular target: T1, Brassica napus (canola) EPSP synthase DGT-3 (GENBANK P17688) variant DGT-3 v8 (T→I, P→S; TIPS) (Brassica napus, UniProt P17688, P178S/T174I); experiment: In vitro kinetic assay (inorganic phosphate production, malachite green); type: biochemical
T1 construct: made in house; host or cells: E. coli Rosetta2 (DE3)
T1 sequence (P17688 73-516 T174I/P178S): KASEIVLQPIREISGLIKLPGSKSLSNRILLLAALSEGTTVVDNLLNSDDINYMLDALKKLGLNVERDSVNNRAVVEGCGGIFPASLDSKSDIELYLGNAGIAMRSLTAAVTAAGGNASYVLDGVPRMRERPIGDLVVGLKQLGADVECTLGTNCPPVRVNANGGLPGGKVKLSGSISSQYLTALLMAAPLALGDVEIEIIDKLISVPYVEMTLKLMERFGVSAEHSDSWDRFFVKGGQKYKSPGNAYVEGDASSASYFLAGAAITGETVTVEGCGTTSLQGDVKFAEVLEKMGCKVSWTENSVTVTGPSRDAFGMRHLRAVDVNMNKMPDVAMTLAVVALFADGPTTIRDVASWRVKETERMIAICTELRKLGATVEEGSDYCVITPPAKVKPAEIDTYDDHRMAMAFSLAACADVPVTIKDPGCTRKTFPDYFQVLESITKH
Source text: (§1) The following Class I enzymes: DGT-1 from Glycine max, DGT-3 from Brassica napus (GENBANK ACC NO: P17688), and DGT-7 from Triticum aestivum (GENBANK ACC NO: EU977181) were used as a comparison. The Class I EPSP synthase enzymes and mutant variants thereof were synthesized and evaluated. A mutation introduced into the plant EPSP synthase enzymes consisted of the Glycine to Alanine mutation made within the EPSP synthase enzyme at a similar location as that of the G96A mutation from the E. coli version of the enzyme. In addition, Threonine to Isoleucine and Proline to Serine mutations were introduced within these Class I EPSP synthase enzymes at analogous positions as that of amino acid 97 (T to I) and amino acid 101 (P to S) in the EPSP synthase of E. coli as described in Funke et al., (2009).
(§2) The location of the amino acid residue which was mutated from glycine to alanine is indicated by the first asterisk. The location of the amino acid residue which was mutated from threonine to isoleucine is indicated by the second asterisk. The location of the third amino acid residue which was mutated from proline to serine is indicated by the third asterisk. These mutations were introduced into different versions of DGT-1, DGT-3, and DGT-7. The different versions of the genes which contain the mutations are described in more detail below.
(§3) Additional constructs containing the dgt-1, dgt-3 and dgt-7 were synthesized. These constructs were used for in vitro testing of the dgt-1 v5, dgt-1 v6, dgt-1 v7, dgt-1 v8, dgt-3 v6, dgt-3 v7, dgt-3 v8, dgt-7 v5, dgt-7 v6, dgt-7 v7, and dgt-7 v8 gene sequences were outsourced to GeneArt for synthesis and cloning. The synthesized genes were cloned into the pET28 expression vector. The resulting constructions were labeled as pDAB102028 containing dgt-1 v5, pDAB102029 containing dgt-1 v6, pDAB102032 containing dgt-1 v7, pDAB102034 containing dgt-1 v8, pDAB100429 containing dgt-3 v6, pDAB100442 containing dgt-3 v7, pDAB100430 containing dgt-3 v8, pDAB102036 containing dgt-7 v5, pDAB102038 containing dgt-7 v6, pDAB102040 containing dgt-7 v7, and pDAB102042 containing dgt-7 v8.
(§4) Recombinant DGT proteins were overexpressed in Rosetta2™ (DE3) cells (Novagen, Madison, Wis.) from the constructs described above. A single colony was used to inoculate 50 mL starter cultures of LB containing chloramphenicol (25 μg/mL) and kanamycin (50 μg/mL) which were cultivated overnight at 37° C. The overnight cultures were used to inoculate 1 L of LB containing chloramphenicol (25 μg/mL) and kanamycin (50 μg/mL). The cultures were grown at 37° C. to an O.D.600=0.6 then placed in an ice water bath for 10 minutes. Expression of the target proteins was achieved by addition of IPTG to a final concentration of 500 μM. Induction was allowed to proceed overnight at 20° C. followed by harvesting via centrifugation at 8,000 rpm for 20 minutes. The cell pellets were stored at −80° C. until required for purification. All purification steps were carried out at 4° C.
(§5) Cell pellets from 1 L cultures were resuspended in 20-30 mL Buffer A (50 mM HEPES pH 7.5, 150 mM KCl, 2 mM DTT, 1 mM EDTA, 20 mM imidazole, and 5% glycerol). COMPLETE™ protease inhibitor cocktail (1 tablet/50 mL, Roche, Indianapolis, Ind.) and lysozyme (1 mg/mL, Sigma-Aldrich, St. Louis, Mo.) were then added and the suspension was stirred for 20 minutes. Cell lysis was performed using a Branson Sonifier 250 (3×60 second bursts) followed by removal of the cell debris by centrifugation at 16,000 rpm for 45 minutes. DGT enzymes were purified to homogeneity in one step via immobilized metal affinity chromatography (IMAC) using a 5 mL HisTrap FF crude column. The column was equilibrated in Buffer A and the sample was loaded in the same buffer. The column was then washed with 10 column volumes of Buffer A followed by elution in a 0-100% Buffer B (50 mM HEPES pH 7.5, 200 mM KCl, 2 mM DTT, 1 mM EDTA, 500 mM imidazole, and 5% glycerol) linear gradient over 25 column volumes. […]

[2] = molecular target: T2, Triticum aestivum (wheat) EPSP synthase DGT-7 variant DGT-7 v8 (T→I, P→S; TIPS) (Triticum aestivum, UniProt B5M6A1, P172S/T168I); experiment: as above; type: biochemical
T2 construct: TIPS double mutant
T2 sequence (B5M6A1 with tags, fused parts or gaps T168I/P172S): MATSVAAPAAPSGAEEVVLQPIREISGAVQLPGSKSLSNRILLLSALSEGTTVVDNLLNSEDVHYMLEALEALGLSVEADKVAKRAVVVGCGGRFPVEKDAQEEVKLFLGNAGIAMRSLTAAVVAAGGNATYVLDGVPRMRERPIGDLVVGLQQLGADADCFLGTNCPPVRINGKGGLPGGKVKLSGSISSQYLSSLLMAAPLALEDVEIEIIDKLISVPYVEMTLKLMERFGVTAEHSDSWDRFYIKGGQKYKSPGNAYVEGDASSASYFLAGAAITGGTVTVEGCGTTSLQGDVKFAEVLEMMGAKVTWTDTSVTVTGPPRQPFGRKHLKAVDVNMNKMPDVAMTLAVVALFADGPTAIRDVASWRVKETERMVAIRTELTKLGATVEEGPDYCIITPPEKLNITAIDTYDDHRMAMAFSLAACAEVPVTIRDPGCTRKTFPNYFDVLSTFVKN
Source text: as §1, §2, §3, §4, §5

[3] = IC50 (glyphosate), at 60 μM PEP
[4] = tolerance to glyphosate, PEP concentration not given

| Structure (SMILES) | kcat/Km ([1]; PEP, pH 7.5, 1 mM S3P) [M⁻¹ s⁻¹] | kcat/Km ([2]; PEP, pH 7.5, 1 mM S3P) [M⁻¹ s⁻¹] | Km ([2]; read-out: Km for PEP, pH 7.5, 1 mM S3P) [µM] | pIC50 [1, 3] | pIC50 ([1]; IC50 (glyphosate), at 1 mM PEP) | pIC50 [1, 4] | pIC50 [2, 3] | pIC50 ([2]; IC50 (glyphosate), at 1 mM PEP, values greater than 50 are estimates) | pIC50 [2, 4] |
| --- | --- | --- | --- | --- | --- | --- | --- | --- | --- |
| C=C(OP(=O)(O)O)C(=O)O [PEP, phosphoenolpyruvate] | 32900 | 13600 | 60 to 200 |  |  |  |  |  |  |
| O=C(O)CNCP(=O)(O)O [glyphosate, N-(phosphonomethyl)glycine] |  |  |  | 2.32 | 1.88 | 2.22 to 2.52 | 2.44 | < 1.10 | 2.22 to 2.52 |
